Laboratory results: patent publication US20170152258A9, “Substituted Pyridopyrazines as Syk Inhibitors” (HUTCHISON MEDIPHARMA LIMITED, priority 2012, published 2017)

Experiments:
[1] = system: RBL-2H3 cells; experiment: IgE-induced Beta-hexosaminidase secretion in RBL-2H3 cells; type: cell-based; conditions: Rattus norvegicus, RBL-2H3, IgE-induced Beta-hexosaminidase secretion, DNP-BSA stimulation
Summary of the method: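 RBL-2H3 cells sensitized overnight with 0.5 ug/ml SPE-7 IgE, washed, preincubated with compound 20 min at 37° C, then stimulated with DNP-BSA (150 ng/mL stock) for 45 min. Released β-hexosaminidase measured on supernatant with 1 mM 4-nitrophenyl N-acetyl-β-D-glucosaminide, pH 4.5, 1.5 hr at 37° C; absorbance 405 nm after carbonate quench.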

[2] = target: Syk kinase (Homo sapiens, UniProt P43405); experiment: SYK Enzymatic Assay (Z-LYTE Tyr 2 peptide); type: biochemical; conditions: 8 concentrations 1 μM down to 0.0003 μM
Summary of the method: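 Z-LYTE format using Tyr 2 peptide. After the 1 h room-temperature kinase reaction, development reagent was added for 1 h, then stop reagent. Fluorescence was read at 445 and 520 nm. Compounds were tested at 8 concentrations, 1 μM down to 0.0003 μM (1:3 dilutions).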

| Compound | IC50 [1] [nM] | IC50 [2] [nM] |
| --- | --- | --- |
| CN1CCc2cc(-c3cc4nccnc4c(OC[C@@H]4CN(C(N)=O)CCO4)n3)ccc21 [Compound 216] | 122 | 49 |
| c1cnc2c(O[C@@H]3CCOC3)nc(-c3ccc(C4CCOCC4)cc3)cc2n1 [Compound 217] | 68 | 45 |
| CN(C)c1ccc(-c2cc3nccnc3c(OC[C@@H]3CN(S(C)(=O)=O)CCO3)n2)cn1 [Compound 218] | 27 | 26 |
| CNS(=O)(=O)N1CCO[C@H](COc2nc(-c3ccc(OC)c(OC)c3)cc3nccnc23)C1 [Compound 220] | 69 | 86 |
| CNS(=O)(=O)N1CCO[C@H](COc2nc(-c3ccc(N(C)C)c(C)c3)cc3nccnc23)C1 [Compound 221] | 38 | 44 |
| CCc1ccc(-c2cc3nccnc3c(OC[C@@H]3CN(C(=O)NC)CCO3)n2)cc1 [Compound 222] | 105 | 84 |
| O=C1C[C@H](COc2nc(-c3ccc(N4CCOCC4)cc3)cc3nccnc23)CN1 [Compound 223] | 121 | 57 |
| Cc1cc(-c2cc3nccnc3c(OC[C@@H]3CNC(=O)C3)n2)ccc1N1CCOCC1 [Compound 224] | 103 | 48 |
| CN1CCN(c2ccc(-c3cc4nccnc4c(OC[C@@H]4CNC(=O)C4)n3)cc2)CC1 [Compound 225] | 302 | 47 |
| Cc1cc(-c2cc3nccnc3c(OC[C@@H]3CNC(=O)C3)n2)ccc1N(C)C [Compound 226] | 60 | 29 |
| OCCN1CCC(c2ccc(-c3cc4nccnc4c(O[C@@H]4CCOC4)n3)cc2)CC1 [Compound 227] | 70 | 37 |
| CC(C)(O)C1CCN(c2ccc(-c3cc4nccnc4c(O[C@@H]4CCOC4)n3)cc2)CC1 [Compound 228] | 39 | 28 |
| C[C@@H]1CN(c2ccc(-c3cc4nccnc4c(O[C@@H]4CCOC4)n3)cc2)C[C@H](C)O1 [Compound 229] | 94 | 49 |
| CC(F)(F)c1ccc(-c2cc3nccnc3c(OC[C@@H]3CN(S(C)(=O)=O)CCO3)n2)cc1 [Compound 230] | 429 | 152 |
| CC(C)(C(N)=O)c1ccc(-c2cc3nccnc3c(OC[C@@H]3CN(S(C)(=O)=O)CCO3)n2)cc1 [Compound 231] | 87 | 42 |
| CN(C)c1ccc(-c2cc3nccnc3c(OC[C@H]3CNC(=O)C3)n2)cc1 [Compound 232] | 56 | 67 |
| NC(=O)N1CCO[C@H](COc2nc(-c3ccc(C4CCOCC4)cc3)cc3nccnc23)C1 [Compound 241, (S)-2-(((7-(4-(tetrahydro-2H-pyran-4-yl)phenyl)pyrido[3,4-b]pyrazin-5-yl)oxy)methyl)morpholine-4-carboxamide] | 124 | 47 |
| CC(Oc1nc(-c2ccc(N(C)C)cc2)cc2nccnc12)C1CN(S(N)(=O)=O)CCO1 (centres unmarked) [Compound 246] | 44 | 95 |
| CC(=O)N1CCO[C@H](COc2nc(-c3ccc(C(C)(C)C#N)cc3)cc3nccnc23)C1 [Compound 248] | 54 | 88 |
| CNC(=O)N1CCO[C@H](COc2nc(-c3ccc(C(C)(C)C#N)cc3)cc3nccnc23)C1 [Compound 249] | 69 | 42 |
| CC(C)(C#N)c1ccc(-c2cc3nccnc3c(OCC3CN(S(N)(=O)=O)CCO3)n2)cc1 (centres unmarked) [Compound 250] | 112 | 28 |
| CNS(=O)(=O)N1CCOC(COc2nc(-c3ccc(C(C)(C)C#N)cc3)cc3nccnc23)C1 (centres unmarked) [Compound 251] | 83 | 75 |
| CC(C)(C#N)c1ccc(-c2cc3nccnc3c(OC[C@@H]3CN(C(N)=O)CCO3)n2)cc1 [Compound 252] | 381 | 31 |
| CC(=O)N1CCO[C@H](COc2nc(-c3ccc(C(C)(C)C)cc3)cc3nccnc23)C1 [Compound 254] | 99 | 55 |
| CC(C)(C)c1ccc(-c2cc3nccnc3c(OC[C@@H]3CN(C(N)=O)CCO3)n2)cc1 [Compound 255] | 97 | 27 |
